Values of other authors in patent EP4209496A1, “NOVEL FLUORESCENT BODIPY COMPOUNDS DISPLAYING ABSORPTION AND EMISSION IN THE NIR REGION” (Université de Strasbourg, priority 2022, dated 2023).
Like-named read-outs stand apart in the source and are kept apart here.

Row | λem (solvent: PBS buffer) [nm] | φf (solvent: PBS buffer) [%] | λem (solvent: biological serum) [nm] | φf (solvent: biological serum) [%] | SMILES
1 | 774 | 28 |  |  | CCN1C(=CC=CC=CC=CC2=[N+](CCCCCC(=O)O)c3ccc(S(=O)(=O)O)cc3C2(C)C)C(C)(C)c2cc(S(=O)(=O)[O-])ccc21 [Cy7]
2 |  |  | 789 | 12 | CC1(C)C(=CC=C2CCCC(C=CC3=[N+](CCCCCC(=O)[O-])c4ccc(S(=O)(=O)[O-])cc4C3(C)C)=C2Oc2ccc(S(=O)(=O)[O-])cc2)N(CCCCS(=O)(=O)[O-])c2ccc(S(=O)(=O)[O-])cc21.[Na+].[Na+].[Na+].[Na+] [IRDye800CW]
3 |  |  | 822 | 9 | CC1(C)C(/C=C/C=C/C=C/C=C2\N(CCCCS(=O)(=O)O)c3ccc4ccccc4c3C2(C)C)=[N+](CCCCS(=O)(=O)[O-])c2ccc3ccccc3c21 [Indocyanine green]
4 |  |  | 686 | 10 | CN(C)c1ccc2nc3ccc(=[N+](C)C)cc-3sc2c1 [Methylene blue]
